Ends that are not written are not given here.
Legend:
[1] = 1D 1H NMR in DPC micelles; type: physicochemical; conditions: NMR sample
Experimental: Nuclear magnetic resonance (NMR) spectra were recorded at 300 K on a Bruker Avance III console (Bruker Biospin, Germany) combined with a […] Oxford Instruments magnet (^1H 500 MHz), equipped with a 5 mm inverse cryogenically cooled triple-resonance TCI (^1H, ^13C, ^15N, and ^2H lock) cryoprobe with a z-axis magnetic field-gradient capability. For proton spectra acquisition, peptide samples were prepared by dissolving first lyophilized peptide in a small amount of DMSO-d6 and next, dissolution in detergent solution containing perdeuterated DPC-d38 (final molar ratio ~ 1:100, peptide/DPC 0.5:50 mM). […] The diffusion coefficient, D, was determined by fitting diffusion weighted intensities of selected peaks or integrals over a chosen range to the following equation1 I=I0exp{−γ^2g^2δ^2(Δ−δ/3)D}, where γ is the gyromagnetic ratio of proton and g, δ and Δ are the amplitude, duration and separation of the single pair of gradient pulses, respectively. […] The reason for DPC diffusion coefficients being higher than peptides values is likely due to a surplus of free monomeric DPC molecules (below cmc), so the diffusion coefficient measured for DPC has a relevant contribution of […], while the observed peptide resonances (and their diffusion coefficient) mainly correspond to DPC-bound peptide.

[2] = test system: Q461 (HIV pseudotype, Env pQ461.e2); conditions: Q461 (R5, subtype A); TZM-bl, peptide 1 h before and during infection, luciferase read-out 48 h after infection; duplicates
Excerpt: (§1) The anti-HIV activities of DT-peptides and E1 were comparatively tested against a set of viral pseudotypes carrying HIV envelopes from HIV subtype A, B, C and A/E (Table 1) in the TZM-bl reporter cell line.
(§2) The preparation of the HIV-1 Env pseudotyped virus stocks in a GCLP- (Good Clinical Laboratory Practice) compliant manner occurred as described previously. This includes the pseudoviruses listed in Table 2 with the Env sequences HXB2, AC10.0.29, Q461.e2, Q23.17, CAP210.2.00.E8 and CM235.c11 as well as the Env deficient backbone plasmid pSG3ΔEnv. Within this study the titration assay to determine the virus dilution at a relative luminescence unit (RLU) of 150,000 was performed according to the method described before[34]–[36] and the luminescence was measured using the Infinite F200 microplate reader.
(§3) Peptides were tested for their antiviral activities against a panel of HIV pseudotypes carrying different HIV envelope proteins (Table 2) in the TZM-bl indicator cell line. Briefly, 10-fold serial dilutions of the compounds (0.001–10 µM) were incubated in duplicates with the cells in 96-well plates. 1 h after incubation, cell culture medium was replaced and cells were infected with the different pseudotypes together with fresh compounds. […] 48 h after infection, cells were washed and luciferase was quantified using the Britelite Plus Luciferase Assay System (PerkinElmer). Luciferase values were normalized to DMSO control. Cell viability was estimated in parallel in non-infected TZM-bl cells with the Cell Titer Glo ATPase kit (Promega). CC50 and EC50 values ± SEM were calculated with GraphPad Prism, using the built-in function log (inhibitor) vs. normalized response.

[3] = test system: CAP210 (HIV pseudotype, Env pCAP210.2); conditions: CAP210 (R5, subtype C); TZM-bl, peptide 1 h before and during infection, luciferase read-out 48 h after infection; duplicates
Excerpt: as §1, §2, §3

[4] = test system: Q23 (HIV pseudotype, Env pQ23.17); conditions: Q23 (R5, subtype A); TZM-bl, peptide 1 h before and during infection, luciferase read-out 48 h after infection; duplicates
Excerpt: as §1, §2, §3

[5] = test system: AC10 (HIV pseudotype, Env pAC10.0); conditions: AC10 (R5, subtype B); TZM-bl, peptide 1 h before and during infection, luciferase read-out 48 h after infection; duplicates
Excerpt: as §1, §2, §3

[6] = test system: CM235 (HIV pseudotype, Env pCM235/GS); conditions: CM235 (R5, subtype A/E); TZM-bl, peptide 1 h before and during infection, luciferase read-out 48 h after infection; duplicates
Excerpt: as §1, §2, §3

[7] = test system: HXB2 (HIV pseudotype, Env pHXB2); conditions: HXB2 (X4, subtype B); TZM-bl, peptide 1 h before and during infection, luciferase read-out 48 h after infection; duplicates
Excerpt: as §1, §2, §3

HIV-1 FP = conditions: donor:acceptor 1:1 ratio; cited from earlier work
Excerpt: The energy transfer efficiency between FP and E1 peptide at a donor:acceptor 1:1 ratio, was around 30% while the energy transfer efficiency between FP and DT-P2 was only 5%.

[8] = membrane affinity / partition, intrinsic Trp fluorescence on titration with POPC liposomes; type: physicochemical; conditions: 5 µM peptide, POPC LUVs 0.05–0.6 mM, 20 °C; for apparent mole fraction partition coefficient KX: intrinsic Trp fluorescence (ex 280 nm), PBS 0.01 M pH 7.4 (method) / HEPES, triplicate
Experimental: Unilamellar vesicles (LUV) composed of the negatively charged phospholipid 1-palmitoyl-2-oleoyl-sn-glycero-3-phospho-(1′-rac-glycerol) (POPG) or zwitteronic phospholipid palmitoyl-2-oleoyl-sn-glycero-3-phosphocholine (POPC) (both from Avanti Polar-Lipids) were prepared as model membranes. Lipids (10 mM) were dissolved in chloroform/methanol (2/1, v/v) solution. The solvent was evaporated under reduced pressure. A buffer solution of PBS 0.01 M pH 7.4 was added to the previously obtained lipid film to prompt the spontaneous formation of multilamellar vesicles that were subjected to a process of 10 freeze and thaw cycles. The liposomes were then subjected to an extrusion process through 100-nm pore-sized polycarbonate filters in a high-pressure extruder.
To carry out membrane partition studies with DT-peptides, emission fluorescence spectra were recorded for DT-peptides in PBS (0.01 M, pH 7.4) at 20 °C using an excitation wavelength of 280 nm. Changes in the tryptophan (Trp) fluorescence spectra were monitored after incubation of 5 µM of each peptide with increasing concentrations of liposomes. The suspensions were continuously stirred and were left to equilibrate for 10 min before recording the spectra. Fluorescence intensities were corrected by subtraction of the vesicle blank. A lipid titration of N-acetyltryptophanamide (NATA) was carried out at the same time. As described in ref. [31], the apparent mole fraction partition coefficients were determined by fitting the binding curves to the equation: F=fboundFmax+(1−fbound)F0 where F is the relative fluorescence intensity, F0 is the fluorescence intensity in the absence of lipid. fbound=KxL/(W+KxL) where Kx is the mole fraction partition coefficient, L is the lipid concentration, and W is the molar concentration of water (55.3 M at 25 °C).

[9] = Trp quenching by brominated phospholipids; type: physicochemical; conditions: 2 µM peptide, 200 µM Br-PC vs DOPC vesicles, 5 min, 25 °C, excitation 290 nm; three repeated assays
Experimental: Quenching of Trp by brominated phospholipid was performed using liposomes composed of 1,2-di-(9-10-dibromo) stearoyl-sn-glycero-3-phosphocoline (Br-PC) (Avanti Polar Lipids). As previously reported, this lipid has similar properties as unsaturated phosphatidylcholine chains due to the bulkiness of bromine residues. For this reason, liposomes of 1,2-dioleoyl-sn-glycero-3-phosphocholine (DOPC) were used for comparing the Trp fluorescence of peptides with brominated liposomes. Liposomes were prepared following the same procedure as described above. Comparatively, a concentration of 2 µM of peptides was added to 200 µM of lipid vesicles either BrPC or DOPC. After 5 min of incubation at 25 °C, fluorescence spectra were recorded with an excitation wavelength of 290 nm and emission from 300 to 450 nm. The fractional quenching was calculated as reported in ref. [33] by (F0 − F)/F0, where F0 is the fluorescence intensity at 340 nm for peptides added to DOPC liposomes and F for peptides added to Br-PC liposomes.

LCDCPNGPWVWVPAFCQAVGGGGSWILEYLWKVPFDFWRGVI-NH2 (cysteines drawn unpaired) [DT-P1]
effect of higher DMSO-d6 (from 3 to 13%) to increase solubility [1]: no improvement was observed
EC50 [2]: 24.5 µM
EC50 [3]: 12.9 µM
EC50 [4]: 21.6 µM
EC50 [5]: 20.2 µM
EC50 [6]: 18.9 µM
EC50 [7]: 7.63 µM

WILEYLWKVPFDFWRGVI-NH2 (C-terminus assumed) [E1]
energy transfer efficiency between FP and peptide (HIV-1 FP): around 30%
Trp fluorescence upon titration with POPC liposomes / membrane partition (in words) ([8]; excitation 280 nm): partitioned stronger into lipid vesicles
apparent mole fraction partition coefficient KX [8]: 8.2 × 10^5
Trp quenching by brominated lipid vesicles / accessibility for the lipids (in words) [9]: highly quenched demonstrating greater peptide accessibility to the hydrophobic inner part of the lipid vesicles

WILEYLWKVPFDFWRGVIGGGSLCDCPNGPWVWVPAFCQAVG-NH2 (cysteines drawn unpaired) [DT-P2]
apparent mole fraction partition coefficient KX [8]: 2.4 × 10^5
EC50 [2]: 24.5 µM
EC50 [3]: 9.4 µM
EC50 [4]: 15.9 µM
EC50 [5]: 14 µM
EC50 [6]: 17.9 µM
EC50 [7]: 10.8 µM

From article PMC6397244, “Peptide Assembly on the Membrane Determines the HIV-1 Inhibitory Activity of Dual-Targeting Fusion Inhibitor Peptides” (Scientific Reports, 2019)
